# Legend:
# Assay type in all cases: in vivo
# [1] = test system: obese Beagle dogs; assay: 4 w-4 w-4 w intermittent dosing regimen study; conditions: 4 w-4 w-4 w regimen, 0.63 mg/kg oral once daily
# Description: Mitratapide was administered for a first period of four weeks at a dosage of 0.63 mg/kg body weight, withheld for four weeks and again administered for four weeks at a dosage of 0.63 mg/kg body weight. At day 29, the feeding was restricted from ad libitum access to food, to a maintenance diet having a caloric content equal to the caloric expenditure of the test subject.
# The effect of a 4 w-4 w-4 w intermittent dosing regimen on 15 obese Beagle dogs, with a body weight of 16% or more above optimal body weight, was studied. The dogs were treated with mitratapide oral solution at a daily single dose of 0.63 mg/kg body weight for two periods of 28 consecutive days (4 weeks) with an intermediate period of 28 consecutive days without treatment.
# The test formulation comprising mitratapide was an aqueous 10% hydroxypropyl-β-cyclodextrin solution containing 2.5 mg mitratapide per ml and was administered once daily in an amount of 1 ml per 4 kg body weight. The daily dose was mixed into a small portion of feed and presented to the dog. The rest of the feed was only provided after this portion was consumed. […] The test solution comprising mitratapide was no longer administered and the body weight of the animals was further monitored during the follow-up procedure ending on day 112. […] Body weight of each test animal was measured on days 0, 14, 28, 42, 56, 84 and 112. […]
# [2] = test system: obese Beagle dogs; assay: Efficacy study with continuous administration of mitratapide during 8 weeks; conditions: oral
# Description: FIG. 1 is a graph displaying the results of an efficacy study wherein the apoB secretion/MTP inhibitor mitratapide was administered during 8 weeks to a group of obese Beagle dogs. The four curves illustrate the effect on body weight by plotting the ‘(%) body weight relative to the weight at the start’ when mitratapide was administered with a dosage of 0 mg per kg body weight (A curve), 0.16 mg per kg body weight (B curve), 0.31 mg per kg body weight (C curve) and 0.63 mg per kg body weight in function of the duration of the study.
# The efficacy of the apoB secretion/MTP inhibitor mitratapide for the reduction of body weight was studied in a blind, randomised study with 4 parallel groups of 6 dogs each. Three groups were treated orally with three different doses of mitratapide and one group was treated orally with the vehicle and served as a placebo group. The vehicle solution contained the same ingredients as the test formulations with omission of the test substance mitratapide.
# The treatment groups were:
# placebo group A treated orally with vehicle
# group B treated orally with 0.16 mg mitratapide per kg body weight
# group C treated orally with 0.31 mg mitratapide per kg body weight
# group D treated orally with 0.63 mg mitratapide per kg body weight
# The test subjects were healthy, male Beagle dogs with a body weight of 13.6 to 22.6 kg at the start of the experiment and between 1 and 8 years old. All dogs were treated orally using a 5 ml syringe, once daily, in the morning for a period of 8 weeks (56 days) depending on their body weight. Body weight was measured once weekly on days 0, 7, 14, 21, . . . up to day 56. The volume of test formulation was 1 ml per 4 kg body weight. The test formulation was an aqueous 10% hydroxypropyl-β-cyclodextrin solution containing no mitratapide, 0.63 mg mitratapide per ml, 1.25 mg mitratapide per ml or 2.5 mg mitratapide per ml. Each test subject had free access (in volume and time) to commercial dog feed (Bento Kronen Professional Power) and water during the 8 week study. […]
# [3] = test system: obese Beagle dogs; assay: Comparison of 3 w-2 w-3 w and 4 w-4 w-4 w dosing regimen; conditions: 0.63 mg/kg oral gavage once daily
# Description: Thirty two healthy obese Beagle dogs of both sexes were included in a study of two different intermittent treatment regimens: a 3 w-2 w-3 w regimen and a 4 w-4 w-4 w regimen. At the start of the study, the dogs weighed between 12.5 and 26 kg which was considered as being more than 20% higher than the ideal body weight. The study was conducted in four groups, two treated groups containing 10 obese Beagle dogs and one placebo group containing 12 obese Beagle dogs. This placebo group of 12 dogs was subdivided in two sets of 6 dogs. One placebo group followed the 3 w-2 w-3 w regimen and the other placebo group the 4 w-4 w-4 w regimen.
# The test compound mitratapide was provided as a polyethylene glycol 400 (PEG 400) solution comprising 5 mg mitratapide per ml. The test solution was administered once daily in the morning by oral gavage. The volume of test formulations was 0.125 ml per kg body weight so that mitratapide was administered with a dosage of 0.63 mg/kg body weight. The body weight was measured weekly during the treatment periods to adjust the amount of test formulation. The placebo groups received water as the test formulation. Each test subject had free access (in volume and time) to commercial dog feed (Bento Kronen premium Regular dog pellets) during the first administration period. The first administration period was followed by a period during which administration of mitratapide was withheld. At the same time, the dogs were put on a maintenance diet having a caloric content equal to their caloric expenditure. […] At the start of the second administration period, the dogs were again administered a mitratapide solution with a dosage of 0.63 mg/kg body weight. The dogs were kept on the same maintenance diet as during the previous period. All dogs had free access to drinking water throughout the entire study. Body weight of each test animal was measured weekly on days 0, 7, 14, 21 and so on till day 84. The effect on body weight for each of the four dosage studies is plotted in FIG. 3. […] The reduction of body weight of the two placebo groups was less than 2% after 84 days.
smiles,measurement,setting,value
"CCC(C)n1ncn(-c2ccc(N3CCN(c4ccc(OCC5COC(CSc6nncn6C)(c6ccc(Cl)cc6)O5)cc4)CC3)cc2)c1=O (stereo not drawn) [mitratapide, (−)-[2S-[2α, 4α(S*)]]-4-[4-[4-[4-[[2-(4-chlorophenyl)-2-[[(4-methyl-4H-1,2,4-triazol-3-yl)thio]methyl]-1,3-dioxolan-4-yl]methoxy]-phenyl]-1-piperazinyl]phenyl]-2,4-dihydro-2-(1-methylpropyl)-3H-1,2,4-triazol-3-one]",mean reduction of body weight,"[1]; maintenance diet from the second period, after 84 days",9%
same,course of body weight reduction (levelling off),[1]; two treatment periods,no body weight reduction levelling off effect was observed
same,effect on body weight at 0.63 mg/kg compared with lower dose,"[2]; 0.63 mg/kg once daily for 8 weeks, free access to feed",more effective in reducing body weight
same,course of body weight reduction (levelling off),"[2]; 0.63 mg/kg once daily, continuous for 8 weeks (curve D)",started to level off after three weeks
same,daily dosage necessary to decrease body weight,"[2]; once daily for 8 weeks (56 days), free access to feed, doses 0.16, 0.31, 0.63 mg/kg tested",at least 0.31 mg/kg
same,course of body weight reduction (levelling off),[3]; 3 w-2 w-3 w and 4 w-4 w-4 w regimens,no body weight reduction levelling off effect was observed
same,mean effect on body weight reduction,"[3]; 3 w-2 w-3 w regimen, day 56",11%
same,mean effect on body weight reduction,"[3]; 4 w-4 w-4 w regimen, day 84",13%

# — patent US20110059986A1, “INTERMITTENT DOSING REGIMEN FOR OVERWEIGHT AND OBESE SUBJECTS” (priority 2004, published 2011)
